Patent US6919348B2, “Therapeutic 1,2,3,6-tetrahydropyrimidine-2-one compositions and methods therewith” (priority 2002, dated 2005)
Read-outs that look alike come from different tables or passages of the source.

Key:
rats = conditions: cited from earlier work
[1] = tested on: surfaces of the human body; assay: Irritation upon contact with the surfaces of the human body; type: in vivo
[2] = tested on: anorectal area of subject with inflamed hemorrhoids; assay: Example 2: anorectal administration in inflamed hemorrhoids; type: in vivo, human; conditions: icilin 20 mg/ml in propylene glycol admixed with saline laxative, 2 ml emulsion instilled into rectum
Protocol: A subject with inflamed hemorrhoids self-administered a commercial suppository, shaped as a 1.5-inch bullet, containing 25 mg of hydrocortisone. The suppository was coated with 5 mg of icilin and 5 mg of WS-23, a menthol analog. Cooling sensations were felt within 5 minutes in the anorectal area extending to the scrotum. Relief of discomfort and itch in the anorectal area lasted for longer than 3 hours. In a similar experiment, icilin, dissolved 20 mg/ml in propylene glycol was admixed with a isotonic sodium chloride solution laxative (containing monobasic sodium phosphate and dibasic sodium phosphate salts), and 2 ml of the emulsion was instilled into the rectum. Again, cooling sensations with relief of itch and discomfort were obtained for 2 hours.

[3] = tested on: mouth, throat and upper alimentary tract; assay: Example 7: chewing gum; type: in vivo, human
Protocol: Two mg of icilin was spread between two wafers of a fruit-flavored chewing gum and chewed for 5 minutes by a subject. […] But after 12 minutes general sensations of coolness were felt in the thoracic internal structures behind the sternum, in the epigastric area. These cooling effects lasted for about 45 minutes. By contrast, the chewing of mentholated gum or mentholated candy, produced after an initial harsh taste, strong cooling of the mouth and throat that lasted only about 10 minutes.
This experiment illustrates important pharmacokinetic differences between icilin and menthol. The effects of mentholated gum are immediate and localized to the mouth and throat. […] Further protection of the icilin by standard encapsulation technology will allow it to reach the distal portions of the gastrointestinal tract such as the lower ileum and colon where it may exert its pharmacological effects as a cold receptor agonist.

Solubility in solvents = type: physicochemical
Protocol: (§1) Icilin is a lemon yellow crystalline powder with a molecular weight of 311 Daltons and a melting point of 229 to 231° C. […] Thus, icilin would be considered as a lipophilic, hydrophobic compound that is not easily miscible with aqueous systems. Analogs of icilin, for example, with acetyoxy, ethyl, fluoro, or trifluoromethyl substitutions, retain similar chemical and physical properties and are included within the scope of this invention.
Menthol, by contrast, is a white crystal with a molecular weight of 156 Daltons and a melting point of 41 to 43° C., a temperature slightly above body temperature. […] Some analogs of menthol, e.g. (+)-neomenthol are colorless liquids at room temperature.

lower eyelid = assay: Example 4: application to lower eyelid; type: in vivo, human; conditions: for duration of cooling/refreshing effect: icilin 10 mg/ml solution
Protocol: A small quantity of a 10 mg/ml solution of icilin dissolved in propylene glycol was applied with a cotton swab stick to the lower eyelid of a subject. […] This effect lasted for about 45 minutes. […] The eyelids smarted from the harsh irritant actions of menthol. The individual blinked and the eyes were momentarily closed with a small degree of lachrymation. But, after about 1 minute, this discomfort dissipated and the cooling sensations of menthol were felt on the eyelid. The sensations were refreshing and lasted for about 15 minutes and accompanied by a minty odor.
By contrast, menthol cannot be used in eye drops because of its irritant actions.

[4] = tested on: nasal cavity of subject with hay fever; assay: Examples 5 and 6: nasal administration in subject with hay fever; type: in vivo, human; conditions: for effect on nasal discharge, urge to sneeze, itchy eyelids: inhaled via the nose, hay fever subject
Protocol: A subject, suffering from hay fever (in this case, seasonal allergy to grass pollen) stopped taking antihistamines for 24 hours and inhaled via the nose 0.5 mg or 2 mg (on 2 separate occasions) of icilin in powder form.
Icilin, dissolved in propylene glycol, was added to a commercial preparation of an anti-allergy nasal spray containing fluticasone to attain a concentration of about 10 mg icilin/ml solution.

abrasion on finger = assay: Example 3: application to abrasion wound on finger; type: in vivo, human; conditions: applied directly to abrasion; icilin 0.8 mg
Protocol: A subject with an abrasion on their finger (caused by friction) of about 1 square centimeter received 0.8 mg of icilin applied directly to the wound with a swab stick.

[5] = Stability at room temperature; type: physicochemical
Protocol: as §1

receptors for cold = conditions: cited from earlier work
[6] = tested on: shaking behavior in the rat; conditions: cited from earlier work
TRP(M8) receptor = TRP(M8) receptor (Rattus norvegicus, UniProt Q8R455); conditions: cloned and transfected TRP(M8) receptor; McKemy et al. 2002; cited from earlier work
skin or mucous membranes = assay: Duration of cooling effect after application to skin or mucous membranes; type: in vivo, human; conditions: applied to the skin or mucous membranes, regardless of dose
From the text: The physico-chemical differences between icilin and menthol confer unique advantages to icilin for manipulating sensory nerve discharges in certain defined clinical situations, as described hereinafter. The first advantage is the site of delivery: menthol cannot be delivered to the eyelids and its environs, the nasal membranes, or the mucous membranes of the anogenital region at high concentrations because it is pungent, stings and irritates. Icilin, on the other hand, can be administered to these sites because it is non-irritating. A second major advantage of icilin is its duration of action. Icilin's actions can be localized at its site of application for a prolonged period because of its lipophilic characteristics and because it can be administered as a powder or dispersed (either in solid form or solubilized) as an emulsion. By contrast, menthol is volatile and rapidly re-distributes and metabolizes in the body so its duration of action is relatively short. For example, icilin applied to nasal membranes can produce refreshing sensations for up to 3 hours.
In practicing the present invention, the topical administration of icilin relieves itching, especially when given in combination with a menthol analog. […]

Sequence of TRP(M8) receptor (Q8R455 whole entry): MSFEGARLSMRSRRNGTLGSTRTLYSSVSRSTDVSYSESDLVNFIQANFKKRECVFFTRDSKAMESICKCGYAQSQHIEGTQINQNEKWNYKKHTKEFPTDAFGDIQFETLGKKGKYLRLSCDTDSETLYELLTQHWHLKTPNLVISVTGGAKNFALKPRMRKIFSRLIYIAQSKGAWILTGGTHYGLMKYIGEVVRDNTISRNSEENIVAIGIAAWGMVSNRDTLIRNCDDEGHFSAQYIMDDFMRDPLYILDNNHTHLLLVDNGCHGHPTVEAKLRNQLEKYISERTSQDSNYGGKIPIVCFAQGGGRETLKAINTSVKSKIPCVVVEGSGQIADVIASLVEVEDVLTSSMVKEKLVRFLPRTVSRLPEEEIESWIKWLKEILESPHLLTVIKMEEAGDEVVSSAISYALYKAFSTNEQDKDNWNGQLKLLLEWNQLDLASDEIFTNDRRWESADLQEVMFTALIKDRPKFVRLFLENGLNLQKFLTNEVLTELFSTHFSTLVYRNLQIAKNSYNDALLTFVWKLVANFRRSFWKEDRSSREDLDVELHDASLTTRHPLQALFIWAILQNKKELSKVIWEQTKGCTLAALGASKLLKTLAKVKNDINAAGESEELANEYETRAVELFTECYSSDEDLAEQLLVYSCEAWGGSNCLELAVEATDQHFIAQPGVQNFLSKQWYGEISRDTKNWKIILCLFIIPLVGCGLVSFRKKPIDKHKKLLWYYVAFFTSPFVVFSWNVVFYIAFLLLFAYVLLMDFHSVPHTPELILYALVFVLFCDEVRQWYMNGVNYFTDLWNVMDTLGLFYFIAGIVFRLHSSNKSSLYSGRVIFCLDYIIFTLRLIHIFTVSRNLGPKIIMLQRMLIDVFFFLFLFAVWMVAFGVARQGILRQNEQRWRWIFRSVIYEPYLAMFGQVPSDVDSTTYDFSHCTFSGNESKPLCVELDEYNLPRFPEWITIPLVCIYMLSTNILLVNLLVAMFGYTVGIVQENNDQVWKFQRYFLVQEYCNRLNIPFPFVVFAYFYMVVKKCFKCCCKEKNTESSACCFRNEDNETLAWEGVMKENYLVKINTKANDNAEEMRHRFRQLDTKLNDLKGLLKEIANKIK

## O=C1NC(c2cccc([N+](=O)[O-])c2)=CCN1c1ccccc1O [icilin, 1-[2-hydroxy]-4-[3-nitrophenyl]-1,2,3,6-tetrahydropyridimine-2-one]
rats
  toxicity relative to menthol, by oral median lethal dose: less toxic than menthol
[1]; powder
  irritation upon contact with body surfaces: non-irritating
[2]
  duration of cooling sensations with relief of itch and discomfort: 2 h
[3]; 2 mg in chewing gum
  coolness in the mouth or throat: No sensations of coolness
[3]; 2 mg in chewing gum chewed 5 minutes, behind the sternum, epigastric area
  onset of general sensations of coolness: 12 min
[3]; 2 mg in chewing gum, thoracic/epigastric area
  duration of cooling effects: about 45 minutes
Solubility in solvents
  solubility in ethanol and acetone: slightly soluble
  solubility in water: virtually insoluble
Solubility in solvents; dimethylsulfoxide, nitromethane, dimethylacetamide and propanediols
  solubility in organic solvents: readily soluble
Lower eyelid
  irritation of the eyelid: without acute irritation
Lower eyelid; 10 mg/ml in propylene glycol
  onset of prickling sensations of cold: ≤ 10 min
Lower eyelid; menthol crystals
  duration of cooling/refreshing effect: about 45 minutes
[4]; 0.5 mg or 2 mg powder inhaled via the nose
  duration of sense of free and unobstructed airflow / cold sensations: about 3 hours
[4]; applied to nasal membranes
  duration of refreshing sensations: up to 3 hours
[4]
  effect on nasal discharge, urge to sneeze, itchy eyelids: curtailed and terminated
Abrasion on finger
  effect on pain and coldness at wound site: pain was lessened
[5]
  stability: stable at room temperature
Receptors for cold; 0.1 mg applied to the dorsum of the tongue
  sensation elicited: prickling sensations of cold
Receptors for cold; ingestion of 6 mg, on one occasion out of three
  sensation elicited: sensations of coolness on the cheeks and on the inner surfaces of the arms and legs
[6]; rat, molar basis
  potency relative to menthol on shaking behavior: 400 times
[6]; rats and monkeys, accompanied by hyperthermia, hyperactivity and ptosis
  behavioral syndrome elicited: wet dog shake behavior
TRP(M8) receptor
  potency relative to menthol in eliciting ion channel current changes: about 200 times

## CC1CCC(C(C)C)C(O)C1 (stereo not drawn) [menthol, reference compound]
[1]; high concentrations, eyes
  irritation: irritating to the eyes
Solubility in solvents
  solubility in ethanol: soluble
  solubility in water: slightly soluble
Lower eyelid
  irritation of the eyelid: sharp discomfort
Lower eyelid; menthol crystals
  duration of cooling/refreshing effect: about 15 minutes
  time until discomfort dissipated: about 1 minute
[4]; 0.8 mg crystals inhaled
  duration of cooling effect: 25 to 30 min
[4]; inhalation of crystals
  irritation on nasal inhalation: initial burning sensation
[4]
  effect on nasal discharge, urge to sneeze, itchy eyelids: No overt beneficial effects
Abrasion on finger
  effect on pain and coldness at wound site: did not elicit sensations of coldness or pain reduction
Skin or mucous membranes
  duration of cooling sensations: 15 to 30 min
